Measured values as given in patent publication US10168342B2, “Lipid probes and uses thereof” (THE SCRIPPS RESEARCH INSTITUTE, priority 2015, dated 2019).

Experiments:
[1] = target: T1, NENF (Homo sapiens, UniProt Q9UMX5); assay: In vitro gel-based competition of AEA-DA probe labeling of NENF; format: binding; conditions: competitors 1-100 μM, NENF-transfected HEK293T lysates
T1 construct: Full-length cDNAs encoding for the each protein of interest were subcloned into pcDNA3.1 myc-His A; Myc (myc-His of pcDNA3.1 myc-His A); expressed in transfected cells; host or cells: HEK293T (lysates)
Method: (§1) Full-length cDNAs encoding for the each protein of interest were subcloned into pcDNA3.1 myc-His A (Invitrogen) or used directly for transfections if available in a eukaryotic expression vector. HEK293T cells were grown to ˜70% confluence under standard growth conditions before adding the appropriate cDNA [control cells (“mock”) received an equal amount of empty pcDNA3.1 myc-His A vector] and FuGENE 6 or X-tremeGENE HP (Roche) transfection reagent according to the manufacturer's instructions. Cells were incubated for 36-48 hours before labeling in situ or harvesting for in vitro experiments.
Cell lysates (1.0 mg/mL), the indicated lipid probe (2.5 or 5 μM) and, for recombinant NUCB1 competition experiments, purified hNUCB1 (250 nM) and CaCl2 (100 μM) were mixed on ice. […] The samples were then irradiated with UV light and subjected to previously described click chemistry conditions. As before, each reaction was quenched with 4×SDS loading buffer (17 μL), and proteins were resolved using SDS-PAGE (10% acrylamide gel) and analyzed by in-gel fluorescent scanning on a Hitachi FMBIO-II flatbed fluorescence scanner. NUCB1 competition was quantitatively assessed by measuring the fluorescent intensity of the corresponding gel band using ImageJ 1.48v and normalizing this value by a non-competed gel band to control for loading differences.
Metabolite data are shown as mean±SEM (n=3-5/group). Differences between two groups were determined using Student's t test (unpaired, two-tailed) and significance was denoted for P values<0.05.

[2] = target: T2, recombinant TMEM97 (Homo sapiens, UniProt Q5BJF2); assay: In situ gel-based competition of arachidonoyl probe labeling of recombinant TMEM97 in HEK293T cells; format: cell-based; conditions: TMEM97-transfected HEK293T cells, probe 5 μM, competitor 25 μM
T2 construct: Full-length cDNAs encoding for the each protein of interest were subcloned into pcDNA3.1 myc-His A; expressed in transfected cells; host or cells: HEK293T
Method: Proteomes were diluted to 1.0 mg/mL (total protein concentration) and 50 μL of each proteome was transferred to separate wells in a 96-well plate.
as §1

T1 sequence (Q9UMX5 32-172, species assumed): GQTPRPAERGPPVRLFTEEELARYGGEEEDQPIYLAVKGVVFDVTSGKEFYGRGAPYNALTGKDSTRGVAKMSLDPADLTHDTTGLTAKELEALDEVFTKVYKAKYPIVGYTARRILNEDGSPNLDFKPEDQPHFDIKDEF
T2 sequence (Q5BJF2 whole entry, species assumed): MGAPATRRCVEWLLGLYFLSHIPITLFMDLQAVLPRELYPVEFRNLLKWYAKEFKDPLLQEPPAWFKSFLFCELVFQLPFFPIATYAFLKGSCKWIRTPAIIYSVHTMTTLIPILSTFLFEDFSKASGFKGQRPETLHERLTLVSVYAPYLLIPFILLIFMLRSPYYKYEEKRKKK

SMILES	competition of AEA-DA probe labeling of recombinant NENF [1]	competition of arachidonoyl probe labeling of recombinant TMEM97 [2]
CCCCC/C=C\C/C=C\C/C=C\C/C=C\CCCC(=O)NCCO [AEA, anandamide, reference compound]	competitively blocked	
C=CCN(C)CCCCCCOc1ccc(C(=O)c2ccc(Br)cc2)c(F)c1 [Ro 48-8071, reference compound]		competition was observed
